Columns and labels:
[1] = Erythritol intervention study (COSETTE): postprandial plasma erythritol levels; type: in vivo, human; settings: for hours after ingestion of 30 g
Protocol: In a fourth study, the first phase of the Erythritol Intervention Study (COSETTE, clinicaltrials.gov number: NCT04731363), prospectively recruited healthy volunteers ingested a standard-size artificially sweetened beverage (300 mL) containing 30 g of erythritol with instructions to consume the drink within 2 minutes, and blood samples were collected at scheduled post-prandial time points for crythritol measurement. For each participant in the erythritol intervention study (n=8), baseline blood samples were first obtained after overnight (≥8 hours) fasting. […] Therefore, participants were given 30 g erythritol dissolved in 300 mL water. Serial venous blood sampling was performed up to 7d after baseline. […]
Stable-isotope-dilution LC/MS/MS was used for quantification of erythritol, threitol, and 1,5-AHG in human and mouse plasma. […] Limit of detection (LOD) and limit of quantification (LOQ) were as follow: threitol:0.048 and 0.160 μM; erythritol: 0.026 and 0.089 μM; 1,5-AHG: […]; respectively. Three quality control samples were run with each batch of samples and inter-batch variations expressed as coefficient of variation (CV) were less than 7% for all analytes monitored. Data were collected and analyzed by LabSolution 5.91 software (Shimadzu).

human whole blood = assay: Imaging flow cytometry of platelet-leukocyte aggregates in whole blood; type: cell-based; settings: pre-incubation with physiological levels of xylitol, TRAP6 7.5 μM
Protocol: Imaging flow cytometry was performed on an Amnis ImageStreamX MK II two-camera system using anti-CD45 AF488, anti-CD41 AF647 and anti-CD62P-PE. Details and the gating strategy are described in supplemental methods.
Whole blood collected from consented healthy volunteers was incubated with xylitol (30 or 100 μM) or vehicle for 30 min. Where indicated, the samples were then stimulated with 7.5 μM TRAP6 for 10 min. Blood samples were then incubated with anti-CD45 AF488 (Catalogue #FAB1430G, R&D Systems, MN, USA), anti-CD41 AF647 (Catalogue #303726, Biolegend, San Diego, CA, USA) and anti-CD62P-PE (Catalogue #555524, BD PharMingen, San Diego, CA, USA) for 20 min at room temperature in the dark. After gentle red blood cell lysis using VersaLyse Lysing solution (Catalogue #A09777, Beckman Coulter, Brea, California, USA), cells were gently spun down and resuspended in HBSS-BSA. Platelet leucocyte aggregates were measured on an Amnis ImageStreanX MK II two-camera system (Luminex, Austin, TX, USA). Data were analyzed using Amnis IDEAS software (Luminex, Austin, TX, USA).
IDEAS analysis was performed as follows. Gating out of focus events using Gradient RMS in the brightfield image. Gating on CD45+ events using the Intensity and Max Pixel features. Elimination of false positive CD45 events and selection of only true CD45+ cells using Intensity vs. Area of CD45+. […]

dogs = settings: dog, in vivo; cited from earlier work

OC[C@@H](O)[C@@H](O)CO [erythritol]
elevation of plasma erythritol over baseline [1]: 1000 fold

OC[C@@H](O)[C@H](O)[C@@H](O)CO [xylitol]
TRAP6 stimulated platelet-leukocyte aggregates (human whole blood): dose-dependent increase | toxicity to dogs (dogs): highly toxic

From patent US20260219274A1, “POLYOL SWEETNERS AND CARDIOVASCULAR AND THROMBOTIC EVENT RISK” (THE CLEVELAND CLINIC FOUNDATION, priority 2023, published 2026)
